Columns and labels:
[1] = tested on: HuR; test: Western blot of HuR; assay type: cell-based; conditions: over time of doxorubicin treatment
Excerpt: Western blot is shown of other RNA binding proteins that increase in mass spectrometry data. […] FIGS. 6J and 6K show Hexim, PPM1G and HuR increase in chemotreated patient samples and on doxorubicin treatment.

[2] = tested on: PARP1; test: Western blot analysis of PARP1; assay type: cell-based; conditions: treated cells
Experimental: (§1) FIGS. 8C and 8D show Western blot analysis of PARP1, phospho-elF2α, METTL3 with doxorubicin or Sal003 treatment. […] 500 nM Doxorubicin treated MCF7 cells were co-treated with 6uM of Enzastaurin or DMSO buffer. […] Data are average of 3 replicates +/-SEM.
Consistently, doxorubicin treated cells are sensitive to PARP inhibitors, such as Talazoparib (BMN-673, FIG. 8B).

[3] = tested on: METTL3 5′UTR; test: Firefly luciferase reporter bearing the 5′UTR of METTL3; assay type: cell-based; conditions: doxorubicin treated vs untreated cells, normalized to Renilla
Excerpt: FIGS. 5A-5I show HuR and associated translation initiation factors promote METTL3 translation in doxorubicin resistant cells. […] Tubulin is the loading control for Western blots. Data are average of 3 replicates +/-SEM. See also FIGS. 6A-6K.
To test if METTL3 mRNA encodes for cis-acting elements that direct its translation upregulation in doxorubicin-treated cells, we constructed Luciferase reporters bearing METTL3 mRNA 5′UTR and 3′UTR, or their reverse sequences or vector sequence as controls. We tested these reporters and their controls in untreated and doxorubicin treated cells. […] Importantly, RNA levels of the 5′UTR reporter remained unaffected between doxorubicin treated compared to untreated cells, and compared to reverse or vector reporters, indicating translation control.

[4] = tested on: METTL3; test: Western blot of METTL3 in breast cancer patient samples grown in 3D cultures; assay type: cell-based; conditions: hormone positive breast cancer patient samples grown as tumor spheres
Excerpt: (§2) The Western blot includes samples with control shRNA or shMETTL3. […] Tubulin and Histone serve as Western blot loading controls. Data are average of 3 replicates +/-SEM. See also FIGS. 2A-2G.
As METTL3 increases in chemosurviving cells and increases m6A on RNA, we tested whether METTL3 increase is needed for chemosurvival by depleting METTL3 or overexpressing METTL3 or a catalytically defective METTL3 (CD-M3) mutant and then tested these cells for doxorubicin survival.

[5] = tested on: METTL14; test: Western blot of METTL14 in breast cancer patient samples grown as tumor spheres; assay type: cell-based
[6] = tested on: METTL3; test: Western blot analysis of METTL3 in MCF7 cells; assay type: cell-based; conditions: MCF7 cells, agent alone vs untreated/buffer, Western blot
Excerpt: as §2
(§3) Data are average of 3 replicates +/-SEM. Tubulin serves as the loading control.
(§4) Tubulin and Histone serve as Western blot loading controls. Data are average of 3 replicates +/-SEM. See also FIGS. 4A-4H.
(§5) Actin and Tubulin are loading controls for Western blots. Data are average of 3 replicates +/-SEM.
as §1
(§6) To determine the mechanisms of specific mRNA expression in chemosurviving cancer cells, we examined RNA binding regulators in chemosurviving MCF7 breast cancer cells, isolated after doxorubicin chemotherapy treatment.

[7] = tested on: METTL3 mRNA; test: METTL3 mRNA level and translation (qPCR, polysome fractionation, nascent amino acid labeling); assay type: cell-based
Experimental: as §4, §5
To verify that the increase in METTL3 was at the translation level, polysome analysis was conducted first. […] We next verified increased polysome association of METTL3 mRNA with Y10B antibody immunoprecipitation in doxorubicin treated and in Sal003 cells compared to buffer treated cells (FIGS. 3I and 4F).

[8] = tested on: METTL3; test: Western blot of METTL3 in patient-derived xenografts treated in vivo; conditions: hormone positive breast cancer patient derived xenografts, 2-1 0 mg/kg doxorubicin in vivo
[9] = tested on: m6A on RNA; test: m6A on ribosomal RNA depleted RNA (dot blot, 2D-TLC); assay type: cell-based; conditions: ribosomal RNA depleted RNA from treated vs untreated MCF7 cells; dot blot or 2D-TLC
Experimental: The Western blot includes samples with control shRNA or shMETTL3. […] Tubulin and Histone serve as Western blot loading controls. Data are average of 3 replicates +/-SEM. See also FIGS. 2A-2G. […]
To test whether the increased m6A modification enzymes lead to increased m6A modification on RNA, ribosomal RNA depleted RNA from doxorubicin treated cells compared to untreated cells by dot blot analyses was tested. […] Consistent with decreased METTL3 upon knockdown, the dot blot signal is depleted when METTL3 is knocked down (FIG. 1B). Second, RNA from doxorubicin treated cells for m6A by two-dimensional-thin layer chromatography separation (2D-TLC) was performed (H. Grosjean, G. Keith, L. Droogmans, Detection and quantification of modified nucleotides in RNA using thin-layer chromatography. Methods in molecular biology (Clifton, N.J.) 265, 357-391 (2004)).

[10] = tested on: phospho-elF2α; test: Western blot of elF2α phosphorylation in MCF7 cells; assay type: cell-based; conditions: MCF7 cells, agent alone, Western blot
Experimental: as §1

[11] = tested on: METTL3; test: Western blot of METTL3 in BT549 cells; assay type: cell-based; conditions: over time of treatment
[12] = tested on: phospho-elF2α; test: Western blot of elF2α phosphorylation in BT549 cells; assay type: cell-based; conditions: over time of treatment
Experimental: as §3
as §6, with “treatment. […] The increase observed is transient and is not observed at 48 h of treatment (FIG. 2A).” for “treatment.”

For `COc1cccc2c1C(=O)c1c(O)c3c(c(O)c1C2=O)C[C@@](O)(C(=O)CO)C[C@@H]3O[C@H]1C[C@H](N)[C@H](O)[C@H](C)O1` [doxorubicin], the HuR level [1] was “increase”, the PARP1 level [2] was “increases” and the “METTL3 5′UTR luciferase reporter translation” value [3] was “enhanced translation”. The METTL3 level [4] was “increased”, the METTL14 level [5] was “Increase” and the METTL3 level [6] was “increases”. The “labeled (newly translated) METTL3, nascent translation assay” value ([7]; Click-it Puro labeling, METTL3 immunoprecipitation, treated vs untreated) was “increase”, the “METTL3 and METTL14 RNA levels by qPCR” value ([7]; doxorubicin treated vs untreated cells) was “no increase” and the “METTL3 mRNA on polysomes compared to monosomes” value ([7]; treated vs buffer treated cells, polysome fractionation and qPCR) was “increased”. For the same compound, the METTL3 level [8] was “increases”, the “m6A on RNA” value [9] was “more m6A modified RNA” and the elF2α phosphorylation [10] was “phosphorylated over time”. For the same compound, the METTL3 level [11] was “transient increase” and the elF2α phosphorylation [12] was “transient increase”.

Reference: patent US20230263798A1, “COMPOSITIONS AND METHODS FOR TREATING THERAPY RESISTANT CANCER” (The General Hospital Corporation, priority 2020, published 2023)
